According to patent US20220281863A1, “COMPOUNDS, COMPOSITIONS AND METHODS OF TREATING DISORDERS” (Reverie Labs, Inc., priority 2019, published 2022):
pIC50: −log10 of the molar value.

Molecular target: T1, CDK9/CycTI (Homo sapiens, UniProt P50750)
T1 construct: purchased Carna biosciences 04-110
Assay: In vitro kinase assay (ADP-Glo Kinase Assay Kit), CDK9/CycTI
Format: biochemical
Conditions: 30 ng CDK9/CycTI, 30 μM CDKtide, 10 μM ATP, 2 hours at room temperature; 8 to 10-point dose response (Tier2); read-out: IC50 Score
Experimental: In vitro kinase assay was performed in white, 384-low volume plates in 5 μl reaction volume consisting of 30 ng CDK9/CycTI (Carna biosciences #04-110), 30 μM CDKtide (Signalchem #C06-58) and 10 μM ATP made in reaction buffer (40 mM Tris, pH 7.5; 20 mM MgCl2; 0.1 mg/ml BSA; 50 μM DTT) at 1 μM & 10 μM compound concentration for Tier1 assay and 8 to 10-point dose response curve for Tier2 assay. After 2 hours of incubation at room temperature, the amounts of […] in the kinase reaction were quantified using ADP-Glo™ Kinase Assay Kit (Promega #V9102). Briefly, 5 μl of ADP-Glo™ reagent was added to stop the kinase reaction and plate was incubated for 40 minutes at room temperature. Subsequently, 10 μl of Kinase Detection Reagent was added and luminescence was recorded after 30 minutes of incubation at room temperature.
The inhibition of kinase activity was determined relative to positive control (2% DMSO) and IC50 was calculated using GraphPad prism software (four parameter-variable slope equation).

T1 sequence (P50750 whole entry): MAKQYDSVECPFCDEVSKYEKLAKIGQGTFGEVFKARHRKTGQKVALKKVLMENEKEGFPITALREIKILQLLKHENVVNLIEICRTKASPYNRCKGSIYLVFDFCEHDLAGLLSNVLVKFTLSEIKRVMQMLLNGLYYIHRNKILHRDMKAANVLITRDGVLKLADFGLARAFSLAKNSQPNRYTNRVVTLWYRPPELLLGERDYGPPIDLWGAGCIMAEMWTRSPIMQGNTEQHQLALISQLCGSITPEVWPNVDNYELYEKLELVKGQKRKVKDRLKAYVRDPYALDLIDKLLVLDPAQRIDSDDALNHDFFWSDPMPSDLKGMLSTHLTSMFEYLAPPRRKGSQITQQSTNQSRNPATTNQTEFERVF
T1 sequence (O60563 whole entry partner): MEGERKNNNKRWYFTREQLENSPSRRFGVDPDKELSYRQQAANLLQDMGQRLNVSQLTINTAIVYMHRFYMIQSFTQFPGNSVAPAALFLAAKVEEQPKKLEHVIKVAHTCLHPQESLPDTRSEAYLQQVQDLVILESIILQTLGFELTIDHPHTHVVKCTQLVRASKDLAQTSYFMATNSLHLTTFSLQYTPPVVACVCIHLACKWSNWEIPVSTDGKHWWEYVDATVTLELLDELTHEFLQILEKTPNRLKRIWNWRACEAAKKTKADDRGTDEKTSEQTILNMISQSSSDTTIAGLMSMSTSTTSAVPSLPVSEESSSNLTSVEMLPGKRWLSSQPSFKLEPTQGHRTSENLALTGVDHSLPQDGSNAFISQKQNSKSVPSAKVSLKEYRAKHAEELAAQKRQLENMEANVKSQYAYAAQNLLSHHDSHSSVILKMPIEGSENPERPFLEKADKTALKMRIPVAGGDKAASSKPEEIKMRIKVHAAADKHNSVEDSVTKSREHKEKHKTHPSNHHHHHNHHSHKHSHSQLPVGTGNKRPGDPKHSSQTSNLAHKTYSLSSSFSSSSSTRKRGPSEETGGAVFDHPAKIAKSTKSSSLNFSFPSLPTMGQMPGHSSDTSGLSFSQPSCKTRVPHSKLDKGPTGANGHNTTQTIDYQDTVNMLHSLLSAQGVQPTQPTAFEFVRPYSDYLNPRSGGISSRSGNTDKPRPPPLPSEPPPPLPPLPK

Q: How did the pIC50 turn out when `CC(=O)N1CCC(C(=O)Nc2nc3ccc4cc(F)ccc4c3s2)C1` (racemic) [Compound 55, 1-acetyl-N-(7-fluoronaphtho[2,1-d]thiazol-2-yl)pyrrolidine-3-carboxamide] was run?
A: 7.00 to 9.00

Q: How did the pIC50 turn out when `O=C(Nc1nc2ccc3cc(F)ccc3c2s1)C1CCNC1` (racemic) [Compound 83, N-(7-fluoronaphtho[2,1-d]thiazol-2-yl)pyrrolidine-3-carboxamide] was run?
A: 7.00 to 9.00

Q: How did the pIC50 turn out when `CC(=O)N1CCNCC1C(=O)Nc1nc2ccc3cc(F)ccc3c2s1` (single isomer, unassigned) [Compound 18-a, 1-acetyl-N-(7-fluoronaphtho[2,1-d]thiazol-2-yl)piperazine-2-carboxamide] was run?
A: 6.30 to 7.00

Q: How did the pIC50 turn out when `CC(=O)N1CCNCC1C(=O)Nc1nc2ccc3cc(F)ccc3c2s1` (single isomer, unassigned) [Compound 18-b, 1-acetyl-N-(7-fluoronaphtho[2,1-d]thiazol-2-yl)piperazine-2-carboxamide] was run?
A: 4.70 to 6.00

Q: How did the pIC50 turn out when `CC(=O)N1CCN(C)CC1C(=O)Nc1nc2ccc3cc(F)ccc3c2s1` (single isomer, unassigned) [Compound 32, 1-acetyl-N-(7-fluoronaphtho[2,1-d]thiazol-2-yl)-4-methylpiperazine-2-carboxamide] was run?
A: 4.70 to 6.00

Q: How did the pIC50 turn out when `CC(=O)N1CCC(C(=O)Nc2nc3ccc4cc(F)ccc4c3s2)C1` (single isomer, unassigned) [Compound 36, 1-acetyl-N-(7-fluoronaphtho[2,1-d]thiazol-2-yl)pyrrolidine-3-carboxamide] was run?
A: 7.00 to 9.00

Q: `O=C(Nc1nc2ccc3cc(F)ccc3c2s1)C1CCNC1` (single isomer, unassigned) [Compound 37, N-(7-fluoronaphtho[2,1-d]thiazol-2-yl)pyrrolidine-3-carboxamide] was tested. Which pIC50 did it give?
A: 7.00 to 9.00

Q: With `CN1CCC(C(=O)Nc2nc3ccc4cc(F)ccc4c3s2)C1` (single isomer, unassigned) [Compound 48, N-(7-fluoronaphtho[2,1-d]thiazol-2-yl)-1-methylpyrrolidine-3-carboxamide] as the compound, how does the pIC50 read?
A: 7.00 to 9.00

Q: With `O=C(Nc1nc2ccc3cc(F)ccc3c2s1)C1CCNC1` (single isomer, unassigned) [Compound 51, N-(7-fluoronaphtho[2,1-d]thiazol-2-yl)pyrrolidine-3-carboxamide] as the compound, how does the pIC50 read?
A: 7.00 to 9.00

Q: `CC(=O)N1CCN(C)CC1C(=O)Nc1nc2ccc3cc(F)ccc3c2s1` (single isomer, unassigned) [Compound 66, 1-acetyl-N-(7-fluoronaphtho[2,1-d]thiazol-2-yl)-4-methylpiperazine-2-carboxamide] was tested. Which pIC50 did it give?
A: 4.70 to 6.00

Q: With `CC(=O)N1CCCC[C@H]1C(=O)Nc1nc2ccc3cc(F)ccc3c2s1` (single isomer, unassigned) [Compound 67] as the compound, how does the pIC50 read?
A: 4.70 to 6.00

Q: `CN1CCC(C(=O)Nc2nc3ccc4cc(F)ccc4c3s2)C1` (single isomer, unassigned) [Compound 70, N-(7-fluoronaphtho[2,1-d]thiazol-2-yl)-1-methylpyrrolidine-3-carboxamide] was tested. Which pIC50 did it give?
A: 7.00 to 9.00

Q: With `CC(=O)N1CCC(C(=O)Nc2nc3ccc4cc(F)ccc4c3s2)C1` (single isomer, unassigned) [Compound 82, 1-acetyl-N-(7-fluoronaphtho[2,1-d]thiazol-2-yl)pyrrolidine-3-carboxamide] as the compound, how does the pIC50 read?
A: 6.30 to 7.00

Q: With `CN1CCC(C(=O)Nc2nc3ccc4cc(F)ccc4c3s2)C1` (single isomer, unassigned) [Compound 92, N-(7-fluoronaphtho[2,1-d]thiazol-2-yl)-1-methylpyrrolidine-3-carboxamide] as the compound, how does the pIC50 read?
A: 7.00 to 9.00

Q: `CC(C)(C)OC(=O)N1CCC[C@@H]1C(=O)Nc1nc2ccc3ccccc3c2s1` [Compound 1, tert-Butyl (R)-2-(naphtho[2,1-d]thiazol-2-ylcarbamoyl)pyrrolidine-1-carboxylate] was tested. Which pIC50 did it give?
A: 4.70 to 6.00

Q: `O=C(Nc1nc2ccc3ccccc3c2s1)[C@H]1CCCN1` [Compound 2, (R)—N-(naphtho[2,1-d]thiazol-2-yl)pyrrolidine-2-carboxamide] was tested. Which pIC50 did it give?
A: 4.70 to 6.00

Q: How did the pIC50 turn out when `CC(=O)N1CCC[C@@H]1C(=O)Nc1nc2ccc3ccccc3c2s1` [Compound 3, (R)-1-acetyl-N-(naphtho[2,1-d]thiazol-2-yl)pyrrolidine-2-carboxamide] was run?
A: 6.30 to 7.00

Q: How did the pIC50 turn out when `CC(=O)N1CCC[C@@H]1C(=O)Nc1nc2ccc3cc(F)ccc3c2s1` [Compound 4, (R)-1-acetyl-N-(7-fluoronaphtho[2,1-d]thiazol-2-yl)pyrrolidine-2-carboxamide] was run?
A: 7.00 to 9.00

Q: With `CC(=O)N1CCC[C@H]1C(=O)Nc1nc2ccc3cc(F)ccc3c2s1` [Compound 5, (S)-1-acetyl-N-(7-fluoronaphtho[2,1-d]thiazol-2-yl)pyrrolidine-2-carboxamide] as the compound, how does the pIC50 read?
A: 4.70 to 6.00

Q: How did the pIC50 turn out when `CC(=O)N1CCC[C@@H]1C(=O)Nc1nc2c(s1)-c1ccc(F)cc1CC2` [Compound 6, (R)-1-acetyl-N-(7-fluoro-4,5-dihydronaphtho[2,1-d]thiazol-2-yl)pyrrolidine-2-carboxamide] was run?
A: 6.00 to 6.30

Q: With `O=C1CC[C@H](C(=O)Nc2nc3ccc4cc(F)ccc4c3s2)N1` [Compound 7, (R)—N-(7-fluoronaphtho[2,1-d]thiazol-2-yl)-5-oxopyrrolidine-2-carboxamide] as the compound, how does the pIC50 read?
A: 7.00 to 9.00

Q: `O=C1CC[C@@H](C(=O)Nc2nc3ccc4cc(F)ccc4c3s2)N1` [Compound 8, (S)—N-(7-fluoronaphtho[2,1-d]thiazol-2-yl)-5-oxopyrrolidine-2-carboxamide] was tested. Which pIC50 did it give?
A: 7.00 to 9.00

Q: How did the pIC50 turn out when `CS(=O)(=O)N1CCC[C@@H]1C(=O)Nc1nc2ccc3cc(F)ccc3c2s1` [Compound 9, (R)—N-(7-fluoronaphtho[2,1-d]thiazol-2-yl)-1-(methylsulfonyl)pyrrolidine-2-carboxamide] was run?
A: 7.00 to 9.00

Q: With `O=C(Nc1nc2ccc3cc(F)ccc3c2s1)[C@H]1CCCO1` [Compound 10, (R)—N-(7-fluoronaphtho[2,1-d]thiazol-2-yl)tetrahydrofuran-2-carboxamide] as the compound, how does the pIC50 read?
A: 6.30 to 7.00

Q: How did the pIC50 turn out when `O=C1CC[C@@H](C(=O)Nc2nc3ccc4ccccc4c3s2)N1` [Compound 11, (S)—N-(naphtho[2,1-d]thiazol-2-yl)-5-oxopyrrolidine-2-carboxamide] was run?
A: 7.00 to 9.00

Q: How did the pIC50 turn out when `CC(=O)Nc1nc2ccc3cc(F)ccc3c2s1` [Compound 12, N-(7-fluoronaphtho[2,1-d]thiazol-2-yl)acetamide] was run?
A: 6.30 to 7.00

Q: How did the pIC50 turn out when `CS(=O)(=O)N[C@@H]1CCC[C@H](C(=O)Nc2nc3ccc4cc(F)ccc4c3s2)C1` [Compound 13-a, (1S,3R)—N-(7-fluoronaphtho[2,1-d]thiazol-2-yl)-3-(methylsulfonamido)cyclohexane-1-carboxamide] was run?
A: 7.00 to 9.00

Q: With `CS(=O)(=O)N[C@@H]1CCC[C@H](C(=O)Nc2nc3c(s2)-c2ccc(F)cc2CC3)C1` [Compound 13-b, (1S,3R)—N-(7-fluoro-4,5-dihydronaphtho[2,1-d]thiazol-2-yl)-3-(methylsulfonamido)cyclohexane-1-carboxamide] as the compound, how does the pIC50 read?
A: 6.30 to 7.00

Q: `CC(=O)N[C@@H]1CCC[C@H](C(=O)Nc2nc3ccc4cc(F)ccc4c3s2)C1` [Compound 14, (1S,3R)-3-acetamido-N-(7-fluoronaphtho[2,1-d]thiazol-2-yl)cyclohexane-1-carboxamide] was tested. Which pIC50 did it give?
A: 7.00 to 9.00

Q: How did the pIC50 turn out when `O=C(Nc1nc2ccc3cc(F)ccc3c2s1)[C@H]1CCC[C@@H](NS(=O)(=O)C2CC2)C1` [Compound 15-a, (1S,3R)-3-(cyclopropanesulfonamido)-N-(7-fluoronaphtho[2,1-d]thiazol-2-yl)cyclohexane-1-carboxamide] was run?
A: 7.00 to 9.00

Q: With `O=C(Nc1nc2c(s1)-c1ccc(F)cc1CC2)[C@H]1CCC[C@@H](NS(=O)(=O)C2CC2)C1` [Compound 15-b, (1S,3R)-3-(cyclopropanesulfonamido)-N-(7-fluoro-4,5-dihydronaphtho[2,1-d]thiazol-2-yl)cyclohexane-1-carboxamide] as the compound, how does the pIC50 read?
A: 6.00 to 6.30

Q: How did the pIC50 turn out when `CC(=O)N[C@H]1CCC[C@H](C(=O)Nc2nc3ccc4cc(F)ccc4c3s2)C1` [Compound 16, (1S,3S)-3-acetamido-N-(7-fluoronaphtho[2,1-d]thiazol-2-yl)cyclohexane-1-carboxamide] was run?
A: 7.00 to 9.00

Q: With `CC(=O)N1CCC[C@@H]1C(=O)Nc1nc2ccc3cc(Cl)ccc3c2s1` [Compound 17, (R)-1-acetyl-N-(7-chloronaphtho[2,1-d]thiazol-2-yl)pyrrolidine-2-carboxamide] as the compound, how does the pIC50 read?
A: 7.00 to 9.00

Q: How did the pIC50 turn out when `CC(=O)N1CCOC[C@@H]1C(=O)Nc1nc2ccc3cc(F)ccc3c2s1` [Compound 19, (R)-4-acetyl-N-(7-fluoronaphtho[2,1-d]thiazol-2-yl)morpholine-3-carboxamide] was run?
A: 7.00 to 9.00

Q: `O=C(Nc1nc2ccc3cc(F)ccc3c2s1)[C@H]1CCCCN1` [Compound 20] was tested. Which pIC50 did it give?
A: 4.70 to 6.00

Q: How did the pIC50 turn out when `CC(=O)N1CCCC[C@@H]1C(=O)Nc1nc2ccc3cc(F)ccc3c2s1` [Compound 21] was run?
A: 7.00 to 9.00

Q: How did the pIC50 turn out when `CC(=O)N(C)[C@@H]1CCC[C@H](C(=O)Nc2nc3ccc4cc(F)ccc4c3s2)C1` [Compound 22] was run?
A: 6.30 to 7.00

Q: With `CC(C)(C)OC(=O)N1CCCC[C@@H]1C(=O)Nc1nc2ccc3cc(F)ccc3c2s1` [Compound 23] as the compound, how does the pIC50 read?
A: 7.00 to 9.00

Q: `CN(C(=O)OC(C)(C)C)[C@@H]1CCC[C@H](C(=O)Nc2nc3ccc4cc(F)ccc4c3s2)C1` [Compound 24] was tested. Which pIC50 did it give?
A: 4.70 to 6.00

Q: How did the pIC50 turn out when `CC(=O)N[C@@H]1CC[C@H](C(=O)Nc2nc3ccc4cc(F)ccc4c3s2)C1` [Compound 25] was run?
A: 6.00 to 6.30

Q: How did the pIC50 turn out when `N[C@@H]1CC[C@H](C(=O)Nc2nc3ccc4cc(F)ccc4c3s2)C1` [Compound 26] was run?
A: 7.00 to 9.00

Q: How did the pIC50 turn out when `CC(=O)N1CCCC[C@H]1C(=O)Nc1nc2ccc3cc(F)ccc3c2s1` [Compound 27, (S)-1-acetyl-N-(7-fluoronaphtho[2,1-d]thiazol-2-yl)piperidine-2-carboxamide] was run?
A: 7.00 to 9.00
